Values of other authors, collected in patent US20050152989A1, “Method for treating irritable bowel syndrome” (Braintree Laboratories, Inc., priority 2003, published 2005).

Legend:
[1] = system: IBS
[2] = system: constipation-predominant IBS; conditions: Case Study 2, patient history before the formulation

Cc1[nH]cnc1CN1CCc2c(c3ccccc3n2C)C1=O [alosetron]
toxicity limiting use ([1]; diarrhea-predominant IBS): severely limited by its toxicity

COc1cc(N)c(Cl)cc1C(=O)NC1CCN(CCCOc2ccc(F)cc2)CC1OC (stereo not drawn) [cisapride]
outcome of earlier treatment regimens tried by the patient [2]: without success

[H]/N=C(/NCCCCC)N/N=C/c1c[nH]c2ccc(OC)cc12 [tegaserod]
patients with significant improvement in IBS symptoms compared with placebo ([1]; constipation-predominant IBS): about one of eight
